{"source": "ChEMBL document CHEMBL5465560", "about": "“Selectivity Literature for EUbOPEN Chemogenomic Library” (2024)", "key": {"[1]": {"molecular_target": "Cyclin-dependent kinase 3 (Homo sapiens) (UniProt Q00526)", "sequence (Q00526 whole entry, looked up)": "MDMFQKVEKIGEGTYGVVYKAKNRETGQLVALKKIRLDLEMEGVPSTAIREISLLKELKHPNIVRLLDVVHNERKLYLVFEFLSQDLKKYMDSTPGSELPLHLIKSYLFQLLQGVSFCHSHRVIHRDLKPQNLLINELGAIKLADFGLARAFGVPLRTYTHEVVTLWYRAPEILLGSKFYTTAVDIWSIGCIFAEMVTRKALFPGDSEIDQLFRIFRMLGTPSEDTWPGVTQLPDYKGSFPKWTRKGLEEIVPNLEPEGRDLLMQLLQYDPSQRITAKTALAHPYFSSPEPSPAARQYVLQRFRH", "assay": "Selectivity interaction (KinomeScan (DiscoverX)) EUB0000229b CDK3", "conditions": "at 10 µM"}, "[2]": {"molecular_target": "T1, Ephrin type-B receptor 6 (Homo sapiens) (UniProt O15197)", "T1 sequence (whole entry)": "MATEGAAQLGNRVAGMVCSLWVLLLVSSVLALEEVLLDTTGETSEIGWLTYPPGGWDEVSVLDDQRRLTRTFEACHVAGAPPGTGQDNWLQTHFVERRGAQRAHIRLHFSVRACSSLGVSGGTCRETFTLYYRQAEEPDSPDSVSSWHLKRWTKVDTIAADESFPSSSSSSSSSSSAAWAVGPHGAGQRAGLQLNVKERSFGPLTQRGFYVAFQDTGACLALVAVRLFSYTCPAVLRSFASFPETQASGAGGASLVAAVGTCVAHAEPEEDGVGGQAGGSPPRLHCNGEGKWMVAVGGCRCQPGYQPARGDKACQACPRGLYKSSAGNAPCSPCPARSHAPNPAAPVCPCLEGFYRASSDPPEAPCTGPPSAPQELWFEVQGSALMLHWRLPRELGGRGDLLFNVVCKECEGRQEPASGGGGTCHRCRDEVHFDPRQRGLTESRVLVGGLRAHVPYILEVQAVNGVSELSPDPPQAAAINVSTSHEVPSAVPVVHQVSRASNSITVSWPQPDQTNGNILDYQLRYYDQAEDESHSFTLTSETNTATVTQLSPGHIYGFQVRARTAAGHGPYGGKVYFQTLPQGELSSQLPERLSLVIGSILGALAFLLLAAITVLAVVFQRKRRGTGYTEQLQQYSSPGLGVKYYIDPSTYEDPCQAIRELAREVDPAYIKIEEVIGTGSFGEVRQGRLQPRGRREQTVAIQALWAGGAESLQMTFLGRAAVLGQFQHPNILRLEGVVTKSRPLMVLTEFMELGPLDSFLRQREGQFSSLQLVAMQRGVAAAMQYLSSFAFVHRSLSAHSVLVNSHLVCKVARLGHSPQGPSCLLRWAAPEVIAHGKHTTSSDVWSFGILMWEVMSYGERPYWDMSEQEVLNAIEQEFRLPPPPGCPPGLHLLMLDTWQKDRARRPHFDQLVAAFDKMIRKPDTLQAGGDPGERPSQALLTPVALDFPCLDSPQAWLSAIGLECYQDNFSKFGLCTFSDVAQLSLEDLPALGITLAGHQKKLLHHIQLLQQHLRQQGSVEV", "assay": "Selectivity interaction (KinomeScan (DiscoverX)) EUB0000595a EPHB6", "conditions": "at 10 µM"}, "[3]": {"molecular_target": "4-aminobutyrate aminotransferase, mitochondrial (Homo sapiens, UniProt P80404)", "sequence (P80404 whole entry)": "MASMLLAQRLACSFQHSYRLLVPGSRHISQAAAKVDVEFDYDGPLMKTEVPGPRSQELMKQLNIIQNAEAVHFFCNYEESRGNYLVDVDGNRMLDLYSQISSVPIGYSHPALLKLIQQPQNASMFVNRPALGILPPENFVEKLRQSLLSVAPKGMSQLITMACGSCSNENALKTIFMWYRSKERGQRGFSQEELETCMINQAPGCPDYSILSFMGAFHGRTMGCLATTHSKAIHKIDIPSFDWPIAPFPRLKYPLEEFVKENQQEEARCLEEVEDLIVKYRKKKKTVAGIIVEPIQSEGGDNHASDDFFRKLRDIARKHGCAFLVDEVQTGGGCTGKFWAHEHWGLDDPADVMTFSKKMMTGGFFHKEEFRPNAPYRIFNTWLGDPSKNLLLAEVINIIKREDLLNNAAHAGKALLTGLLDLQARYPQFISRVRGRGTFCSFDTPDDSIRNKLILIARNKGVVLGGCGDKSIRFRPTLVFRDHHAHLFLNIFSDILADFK", "assay": "Selectivity interaction (GPCR panel (PDSP screen)) EUB0001079a ABAT", "conditions": "at 10 µM"}, "[4]": {"molecular_target": "MAP kinase-activated protein kinase 2 (Homo sapiens, UniProt P49137)", "sequence (P49137 whole entry, looked up)": "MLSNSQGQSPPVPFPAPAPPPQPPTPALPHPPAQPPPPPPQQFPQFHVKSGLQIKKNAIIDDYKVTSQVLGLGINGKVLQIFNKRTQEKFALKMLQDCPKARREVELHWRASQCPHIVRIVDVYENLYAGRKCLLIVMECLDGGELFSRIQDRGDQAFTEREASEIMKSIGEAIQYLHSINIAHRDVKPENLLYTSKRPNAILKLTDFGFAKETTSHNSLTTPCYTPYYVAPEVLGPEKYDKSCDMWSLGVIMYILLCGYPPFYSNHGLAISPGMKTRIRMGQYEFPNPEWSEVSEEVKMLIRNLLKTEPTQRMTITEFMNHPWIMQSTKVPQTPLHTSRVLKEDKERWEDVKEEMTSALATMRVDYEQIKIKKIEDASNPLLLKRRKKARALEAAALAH", "assay": "Selectivity interaction (Kinase screening (Nanosyn)) EUB0000604a MAPKAPK2"}, "[5]": {"molecular_target": "Serine/threonine-protein kinase PAK 6 (Homo sapiens) (UniProt Q9NQU5)", "sequence (Q9NQU5 whole entry, looked up)": "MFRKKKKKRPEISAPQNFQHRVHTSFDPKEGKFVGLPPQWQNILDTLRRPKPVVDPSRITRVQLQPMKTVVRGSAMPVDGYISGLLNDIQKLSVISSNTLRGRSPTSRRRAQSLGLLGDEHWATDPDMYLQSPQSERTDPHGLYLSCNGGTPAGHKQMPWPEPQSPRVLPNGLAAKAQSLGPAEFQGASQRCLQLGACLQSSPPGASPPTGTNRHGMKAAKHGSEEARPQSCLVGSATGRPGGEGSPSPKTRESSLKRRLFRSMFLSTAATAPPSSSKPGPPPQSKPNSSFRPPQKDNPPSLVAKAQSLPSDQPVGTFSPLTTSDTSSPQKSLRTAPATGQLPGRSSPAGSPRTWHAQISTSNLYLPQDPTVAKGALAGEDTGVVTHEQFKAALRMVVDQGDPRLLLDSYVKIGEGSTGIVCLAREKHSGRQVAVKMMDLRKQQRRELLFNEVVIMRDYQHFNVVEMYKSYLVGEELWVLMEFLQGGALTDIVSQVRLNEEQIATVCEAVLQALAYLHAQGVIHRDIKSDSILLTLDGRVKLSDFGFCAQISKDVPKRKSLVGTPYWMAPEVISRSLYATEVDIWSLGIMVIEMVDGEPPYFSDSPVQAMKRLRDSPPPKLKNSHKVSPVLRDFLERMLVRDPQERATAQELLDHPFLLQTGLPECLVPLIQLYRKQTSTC", "assay": "Selectivity interaction (ProQinase) EUB0000171b PAK6", "conditions": "at 1 µM"}, "[6]": {"molecular_target": "Tyrosine-protein kinase SYK (Homo sapiens, UniProt P43405)", "assay": "Selectivity interaction (ProQinase) EUB0000171b SYK"}, "[7]": {"molecular_target": "T2, Mitogen-activated protein kinase kinase kinase 7 (Homo sapiens) (UniProt O43318)", "T2 sequence (whole entry)": "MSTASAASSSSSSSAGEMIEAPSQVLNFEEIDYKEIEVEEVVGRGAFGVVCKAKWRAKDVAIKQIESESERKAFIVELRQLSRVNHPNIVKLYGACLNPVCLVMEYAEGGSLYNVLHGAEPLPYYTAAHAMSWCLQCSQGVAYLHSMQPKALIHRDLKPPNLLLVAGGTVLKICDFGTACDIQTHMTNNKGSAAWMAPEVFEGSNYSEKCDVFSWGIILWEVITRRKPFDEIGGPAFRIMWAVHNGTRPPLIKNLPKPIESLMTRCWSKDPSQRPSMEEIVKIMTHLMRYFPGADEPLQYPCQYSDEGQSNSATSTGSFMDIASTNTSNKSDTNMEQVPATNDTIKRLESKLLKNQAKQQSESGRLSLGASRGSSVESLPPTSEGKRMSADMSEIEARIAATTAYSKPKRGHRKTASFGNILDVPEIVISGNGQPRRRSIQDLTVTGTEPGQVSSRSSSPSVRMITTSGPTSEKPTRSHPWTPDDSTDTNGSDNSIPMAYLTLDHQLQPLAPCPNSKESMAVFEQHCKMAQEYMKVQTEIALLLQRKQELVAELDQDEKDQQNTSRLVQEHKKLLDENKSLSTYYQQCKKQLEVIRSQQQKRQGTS", "assay": "Selectivity interaction (ProQinase) EUB0000171b MAP3K7"}, "[8]": {"molecular_target": "Casein kinase I isoform alpha (Homo sapiens, UniProt P48729)", "sequence (P48729 2-337 limits assumed)": "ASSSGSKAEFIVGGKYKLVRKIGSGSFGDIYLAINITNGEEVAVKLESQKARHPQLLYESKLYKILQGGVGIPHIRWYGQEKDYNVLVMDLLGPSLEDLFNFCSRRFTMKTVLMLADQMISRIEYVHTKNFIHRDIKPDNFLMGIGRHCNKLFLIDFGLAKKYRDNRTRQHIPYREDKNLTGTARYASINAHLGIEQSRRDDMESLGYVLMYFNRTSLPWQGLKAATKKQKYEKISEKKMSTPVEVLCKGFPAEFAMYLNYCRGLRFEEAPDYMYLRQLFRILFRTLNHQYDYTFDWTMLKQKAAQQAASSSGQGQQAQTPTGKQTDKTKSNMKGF", "assay": "Selectivity interaction (KinomeScan (DiscoverX)) EUB0000607a CSNK1A1", "conditions": "at 10 µM"}, "[9]": {"molecular_target": "Mitogen-activated protein kinase 6 (Homo sapiens) (UniProt Q16659)", "sequence (Q16659 whole entry)": "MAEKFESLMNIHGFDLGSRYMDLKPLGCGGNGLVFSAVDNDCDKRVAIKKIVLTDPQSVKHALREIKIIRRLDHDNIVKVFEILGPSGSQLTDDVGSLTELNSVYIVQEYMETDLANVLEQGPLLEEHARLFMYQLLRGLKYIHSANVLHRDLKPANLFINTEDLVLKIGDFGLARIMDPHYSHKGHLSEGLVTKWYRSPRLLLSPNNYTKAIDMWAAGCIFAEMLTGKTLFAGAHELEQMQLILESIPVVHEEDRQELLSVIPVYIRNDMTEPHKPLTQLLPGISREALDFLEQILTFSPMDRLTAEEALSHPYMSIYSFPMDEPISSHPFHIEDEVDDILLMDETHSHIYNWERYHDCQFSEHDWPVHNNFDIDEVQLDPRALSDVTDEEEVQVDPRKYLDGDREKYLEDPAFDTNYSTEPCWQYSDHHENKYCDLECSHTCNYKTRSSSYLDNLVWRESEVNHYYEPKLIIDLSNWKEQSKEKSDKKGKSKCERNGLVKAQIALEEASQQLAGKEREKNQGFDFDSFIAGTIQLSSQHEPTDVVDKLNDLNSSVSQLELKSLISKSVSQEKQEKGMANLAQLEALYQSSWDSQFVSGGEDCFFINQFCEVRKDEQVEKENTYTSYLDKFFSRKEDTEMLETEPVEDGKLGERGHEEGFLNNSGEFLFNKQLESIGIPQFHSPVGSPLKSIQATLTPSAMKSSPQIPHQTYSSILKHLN", "assay": "Selectivity interaction (KinomeScan (DiscoverX)) EUB0000607a MAPK6", "conditions": "at 10 µM"}, "[10]": {"molecular_target": "Activin receptor type-1-like (Homo sapiens) (UniProt P37023)", "sequence (P37023 whole entry)": "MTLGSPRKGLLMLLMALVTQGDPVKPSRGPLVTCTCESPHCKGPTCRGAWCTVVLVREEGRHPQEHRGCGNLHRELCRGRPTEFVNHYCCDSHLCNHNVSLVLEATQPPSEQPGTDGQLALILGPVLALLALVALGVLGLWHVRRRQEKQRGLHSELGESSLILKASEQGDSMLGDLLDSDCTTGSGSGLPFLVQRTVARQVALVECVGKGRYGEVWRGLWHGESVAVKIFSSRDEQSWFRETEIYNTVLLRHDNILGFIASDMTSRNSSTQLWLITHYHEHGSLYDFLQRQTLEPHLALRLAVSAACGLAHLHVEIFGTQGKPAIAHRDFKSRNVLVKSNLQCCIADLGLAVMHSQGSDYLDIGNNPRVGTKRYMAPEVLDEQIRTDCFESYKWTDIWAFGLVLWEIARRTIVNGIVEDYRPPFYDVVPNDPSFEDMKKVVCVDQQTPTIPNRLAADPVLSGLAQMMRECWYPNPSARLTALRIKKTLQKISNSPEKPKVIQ", "assay": "Selectivity interaction (KinomeScan (DiscoverX)) EUB0000618a ACVRL1", "conditions": "at 10 µM"}, "[11]": {"molecular_target": "Leukocyte tyrosine kinase receptor (Homo sapiens, UniProt P29376)", "sequence (P29376 whole entry)": "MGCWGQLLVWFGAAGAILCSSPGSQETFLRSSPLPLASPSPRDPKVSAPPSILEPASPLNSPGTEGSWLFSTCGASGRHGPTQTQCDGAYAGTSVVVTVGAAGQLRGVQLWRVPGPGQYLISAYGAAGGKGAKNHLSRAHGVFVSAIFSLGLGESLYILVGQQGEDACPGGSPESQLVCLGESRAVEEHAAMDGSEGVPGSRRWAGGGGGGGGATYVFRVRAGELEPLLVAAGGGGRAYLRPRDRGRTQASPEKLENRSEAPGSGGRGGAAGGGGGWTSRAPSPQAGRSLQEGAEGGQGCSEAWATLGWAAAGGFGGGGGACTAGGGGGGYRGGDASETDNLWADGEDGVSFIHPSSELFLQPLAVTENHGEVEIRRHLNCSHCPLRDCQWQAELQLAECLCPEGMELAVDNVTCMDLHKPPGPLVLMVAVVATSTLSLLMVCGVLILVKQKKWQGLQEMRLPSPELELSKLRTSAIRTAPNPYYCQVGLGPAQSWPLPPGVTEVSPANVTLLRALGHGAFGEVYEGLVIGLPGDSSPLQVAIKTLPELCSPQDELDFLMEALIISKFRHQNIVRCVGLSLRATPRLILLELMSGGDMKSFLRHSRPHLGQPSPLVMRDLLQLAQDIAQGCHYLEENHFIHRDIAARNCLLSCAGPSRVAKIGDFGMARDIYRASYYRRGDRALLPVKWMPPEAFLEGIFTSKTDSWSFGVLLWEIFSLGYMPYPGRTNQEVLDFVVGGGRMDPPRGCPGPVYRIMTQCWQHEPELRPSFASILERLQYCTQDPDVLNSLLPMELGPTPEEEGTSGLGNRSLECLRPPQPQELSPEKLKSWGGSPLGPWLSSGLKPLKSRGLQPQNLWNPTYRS", "assay": "Selectivity interaction (Kinase panel (Invitrogen)) EUB0000639a LTK", "conditions": "at 200 nM"}, "[12]": {"molecular_target": "Phosphatidylinositol 4-phosphate 5-kinase type-1 gamma (Homo sapiens) (UniProt O60331)", "sequence (O60331 whole entry)": "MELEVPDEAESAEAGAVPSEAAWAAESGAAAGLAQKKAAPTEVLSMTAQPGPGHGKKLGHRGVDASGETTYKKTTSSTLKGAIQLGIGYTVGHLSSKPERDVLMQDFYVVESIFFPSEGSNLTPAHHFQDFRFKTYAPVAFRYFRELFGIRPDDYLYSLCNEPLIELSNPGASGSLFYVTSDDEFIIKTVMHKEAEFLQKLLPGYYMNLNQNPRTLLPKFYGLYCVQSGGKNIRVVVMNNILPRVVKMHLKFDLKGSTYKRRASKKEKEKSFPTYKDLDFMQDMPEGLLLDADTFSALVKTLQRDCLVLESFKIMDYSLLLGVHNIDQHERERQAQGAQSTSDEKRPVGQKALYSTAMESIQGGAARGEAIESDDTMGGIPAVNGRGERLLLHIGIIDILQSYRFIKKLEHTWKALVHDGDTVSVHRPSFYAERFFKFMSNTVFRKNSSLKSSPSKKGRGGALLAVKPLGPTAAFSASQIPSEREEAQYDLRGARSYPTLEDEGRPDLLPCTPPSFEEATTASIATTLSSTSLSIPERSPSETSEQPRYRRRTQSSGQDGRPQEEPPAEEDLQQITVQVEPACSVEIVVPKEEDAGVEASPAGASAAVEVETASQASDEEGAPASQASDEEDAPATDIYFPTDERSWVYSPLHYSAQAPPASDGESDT", "assay": "Selectivity interaction (KinomeScan (DiscoverX)) EUB0000655a PIP5K1C", "conditions": "at 10 µM"}, "[13]": {"molecular_target": "T3, Dual specificity mitogen-activated protein kinase kinase 3 (Homo sapiens) (UniProt P46734)", "T3 sequence (whole entry)": "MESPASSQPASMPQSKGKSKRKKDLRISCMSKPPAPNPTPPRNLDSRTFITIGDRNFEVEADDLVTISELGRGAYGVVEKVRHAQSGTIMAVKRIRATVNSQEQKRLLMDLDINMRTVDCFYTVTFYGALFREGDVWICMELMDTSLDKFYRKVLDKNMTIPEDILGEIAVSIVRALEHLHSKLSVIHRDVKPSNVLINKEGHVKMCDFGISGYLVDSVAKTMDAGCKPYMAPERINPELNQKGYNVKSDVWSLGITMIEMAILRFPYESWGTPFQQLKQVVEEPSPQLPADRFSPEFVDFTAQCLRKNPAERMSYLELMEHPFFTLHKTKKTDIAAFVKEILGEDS", "assay": "Selectivity interaction (KinomeScan (DiscoverX)) EUB0000092b MAP2K3", "conditions": "at 10 µM"}}}
{"compound": "COc1cc(N(C)c2ccnc3ccc(C(F)(F)F)cc23)cc(OC)c1OC", "values": [{"measurement": "% binding", "setting": "[1]", "result": 100, "unit": "%"}]}
{"compound": "COCC(=O)NC/C=C/c1ccc2ncnc(Nc3ccc(Oc4ccc(C)nc4)c(C)c3)c2c1", "note": "[CP-724714]", "values": [{"measurement": "% of control", "setting": "[2]", "result": 74, "unit": "%"}]}
{"compound": "Nc1cnc(N2CCc3cc(S(=O)(=O)Nc4c(F)cc(Cl)cc4F)cc(N4CCCC4=O)c32)nc1", "note": "[TP-020n]", "values": [{"measurement": "% of inhibition", "setting": "[3]", "result": -2.65, "unit": "%"}]}
{"compound": "Cc1cnc(Nc2ccc(F)cc2Cl)nc1-c1c[nH]c(C(=O)N[C@H](CO)c2cccc(Cl)c2)c1", "values": [{"measurement": "% of inhibition", "setting": "[4]", "result": 0, "unit": "%"}]}
{"compound": "C=CC(=O)Nc1cccc(C(=O)Nc2ccc(Nc3cc(-c4[nH]c(SC)nc4C)ccn3)cc2)c1", "values": [{"measurement": "% of control", "setting": "[5]", "result": 90, "unit": "%"}, {"measurement": "% of control", "setting": "[6]; at 1 µM", "result": 94, "unit": "%"}, {"measurement": "% of control", "setting": "[6]; at 5 µM", "result": 86, "unit": "%"}, {"measurement": "% of control", "setting": "[7]; at 1 µM", "result": 101, "unit": "%"}, {"measurement": "% of control", "setting": "[7]; at 5 µM", "result": 77, "unit": "%"}]}
{"compound": "CNC(=O)Nc1ccc(-c2nc(N3CC4CCC(C3)O4)c3cnn(C4CCC5(CC4)OCCO5)c3n2)cc1", "values": [{"measurement": "% of control", "setting": "[8]", "result": 100, "unit": "%"}, {"measurement": "% of control", "setting": "[9]", "result": 85, "unit": "%"}]}
{"compound": "O[C@H]1CC[C@H](Nc2ncc3nc(Nc4c(F)cc(F)cc4F)n([C@H]4CCOC4)c3n2)CC1", "values": [{"measurement": "% of control", "setting": "[10]", "result": 72, "unit": "%"}]}
{"compound": "CC[C@@H]1[C@H](F)C(=O)N[C@@H]1COc1nccc2cc(C(N)=O)c(OC)cc12", "note": "[ZIMLOVISERTIB]", "values": [{"measurement": "% of inhibition", "setting": "[11]", "result": 5.58, "unit": "%"}]}
{"compound": "CN(C)CCOc1ccc(-c2nc(-c3ccncc3)c(-c3ccc4c(c3)CC/C4=N\\O)[nH]2)cc1", "values": [{"measurement": "% of control", "setting": "[12]", "result": 52, "unit": "%"}]}
{"compound": "CCC(=O)N1CCN(c2ccc(-n3c(=O)ccc4cnc5ccc(-c6cnc7ccccc7c6)cc5c43)cc2C(F)(F)F)CC1", "values": [{"measurement": "% of control", "setting": "[13]", "result": 80, "unit": "%"}]}
